Laboratory results reported in patent US8178089B2, “Neuronal progenitors from feeder-free human embryonic stem cell culture” (The University of Georgia Research Foundation, Inc, priority 2004, dated 2012).

Assays:
[1] = test system: voltage-gated sodium channels; assay: Intracellular calcium measurement (Fluo-3AM, FLIPR) in human neuroprogenitor cells; type: cell-based; conditions: 30 μM veratridine, 96-well plates
Experimental: In this experiment, human neuroprogenitor cells were seeded in 96-well plates and incubated with dye loading medium containing 2 μM Fluo-3AM and 0.04% pluronic acid in Locke's buffer. After 45 minutes of incubation, the neuroprogenitor cells were gently washed three times in fresh Locke's buffer. Following the final wash, 150 μl of Locke's buffer was added to each well and the plate was transferred to the FLIPR® incubation chamber (Molecular Devices). […] These cells can therefore be used to determine the effect of an antagonist or agonist on calcium uptake or whether an agent is a likely antagonist or agonist of calcium uptake.

NEP cells [2] = assay: Plating efficiency of subcultured NEP cells (day 1); type: cell-based, human; conditions: for plating efficiency versus control: NEP after 6 months in LIF supplemented culture; for effect on plating efficiency / plating efficiency: early NEP cells (1 mo)
Experimental: (§1) Effect of LIF and bFGF on subcultured NEP cells. Two groups of cultured NEP cells, one less than 1 month (<1 mo) and the other approximately 6 months (6 mo) in NB27 (described in previous section), were dissociated by 0.05% trypsin to obtain a single-cell suspension, and 50,000 cells/cm^2 were plated in one of the subculture media on polyornithine and laminin-coated dishes. Two concentrations of two growth factors (LIF; 0 or 10 ng/ml and bFGF; 0 or 20 ng/ml) in NB27, were applied to cells. Cells were harvested from each group and nuclei were counted by flow cytometry on days 1 and 14. Plating efficiency rate was calculated as the ratio of cells harvested to cells plated on day 1. Proliferation was measured on day 14. For each replicate, counted nuclei from the four treatment groups were added to obtain an overall total. The total cell number within each group was then divided by the overall total cell number and expressed as a percent.

NEP cells [3] = assay: Proliferation of subcultured NEP cells (nuclei count by flow cytometry, day 14); type: cell-based, human; conditions: for proliferation rate: long term cultured NEP cells (6 mo)
Experimental: as §1

OLIG2 expression = assay: OLIG2 gene expression by real time RT-PCR in NEP; type: cell-based; conditions: human NEP, FIG. 2A
Excerpt: The motor neuron progenitor gene, OLIG2, is expressed early in motor neuron induction. Novitch, et al., Neuron, 31(5), 773-89 (2001). […] Subsequently, we examined expression of the motor neuron gene HLBX9 to investigate the effect of Shh and RA on motor neuron differentiation. Based on the OLIG2 results, bFGF was included at the time of RA or RA plus Shh exposure. The combination of RA and bFGF produced a 2·20 fold increased in HLBX9 expression level, and combining bFGF, Shh and RA increased HLBX9 expression 8·49 fold higher than bFGF alone in human NEP (FIG. 2B).

With `COc1ccc(C(=O)O[C@H]2CC[C@@]3(C)[C@@H]4CC[C@H]5[C@]6(O)C[C@H](O)[C@@]7(O)[C@@H](CN8C[C@@H](C)CC[C@H]8[C@@]7(C)O)[C@]6(O)C[C@@]53O[C@]24O)cc1OC` [veratridine] as the compound, how does the “elevation of intracellular [Ca2+]” value [1] read?
The value was ~145 % of control.

Which “plating efficiency versus control” value (NEP cells [2]) does the source give for “LIF: Leukemia Inhibitory Factor, growth factor” here?
The value was “higher plating efficiency than the control”.

What about the “effect on plating efficiency” value (NEP cells [2]) of the same compound?
The value was “no effect”.

And the plating efficiency (NEP cells [2])?
Its plating efficiency is “about 50%”.

What about the “effect on proliferation of NEP cells” value (NEP cells [3]; early NEP cells (1 mo), in presence or absence of bFGF) of the same compound?
Its value is “no effect”.

And the proliferation rate (NEP cells [3])?
The proliferation rate was “increased proliferation rate”.

Which results are given for “bFGF: basic fibroblast growth factor, growth factor”?
plating efficiency versus control (NEP cells [2]): higher plating efficiency than the control; effect on plating efficiency (NEP cells [2]): no effect; plating efficiency (NEP cells [2]): about 50%; cell proliferation (group cell number as percent of overall total) (NEP cells [3]; early NEP cells (1 mo), day 14, bFGF 20 ng/ml, control 8.9%): 38.5%; proliferation rate (NEP cells [3]): increased proliferation rate; OLIG2 expression change (OLIG2 expression): significantly increased
